Data as given in PubChem BioAssay AID256 (DTP/NCI, 2004).
Where “and” joins values, the source holds several entries; their conditions need not be identical. Identical values can stand only once. Inconclusive results and toxic doses are left out.

Tested on: CD2F1 mice, L1210 leukemia ip, survival T/C
Assay: NCI In Vivo Anticancer Drug Screen. Data for tumor model L1210 Leukemia (intraperitoneal) in CD2F1 (CDF1) mice
Details: higher = longer survival
Method in brief: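 Read-out first: treated-group measurement over vehicle-control measurement, expressed as a ratio. Animals bore a transplanted tumor line and were dosed with compound or vehicle.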

[1] = endpoint: mean survival time, dose: 50.0 mg/kg/injection, schedule: Q04DX003 (ip), vehicle: saline
[2] = endpoint: mean survival time, dose: 100.0 mg/kg/injection, schedule: Q04DX003 (ip), vehicle: saline
[3] = endpoint: mean survival time, dose: 200.0 mg/kg/injection, schedule: Q04DX003 (ip), vehicle: saline
[4] = endpoint: mean survival time, dose: 100.0 mg/kg/injection, schedule: Q04DX003 (ip), vehicle: saline with Tween-80
[5] = endpoint: mean survival time, dose: 200.0 mg/kg/injection, schedule: Q04DX003 (ip), vehicle: saline with Tween-80
[6] = endpoint: mean survival time, dose: 400.0 mg/kg/injection, schedule: Q04DX003 (ip), vehicle: saline with Tween-80
[7] = endpoint: mean survival time, dose: 100.0 mg/kg/injection, schedule: Q01DX001 (ip), vehicle: saline
[8] = endpoint: mean survival time, dose: 200.0 mg/kg/injection, schedule: Q01DX001 (ip), vehicle: saline

`O=P([O-])([O-])O.O=P([O-])([O-])O.O=P([O-])([O-])O.O=P([O-])([O-])O.[Na+].[OH3+].[OH3+].[Pt+2].[Pt+2]` was tested, and the T/C (endpoint: median survival time, dose: 10.0 mg/kg/injection, schedule: Q04DX003 (ip), vehicle: water) was 102 % of control, the T/C (endpoint: median survival time, dose: 20.0 mg/kg/injection, schedule: Q04DX003 (ip), vehicle: water) was 91 % of control and the T/C (endpoint: median survival time, dose: 30.75 mg/kg/injection, schedule: Q04DX003 (ip), vehicle: water) was 103 % of control. The T/C (endpoint: median survival time, dose: 40.0 mg/kg/injection, schedule: Q04DX003 (ip), vehicle: water) was 98 % of control, the T/C (endpoint: median survival time, dose: 61.5 mg/kg/injection, schedule: Q04DX003 (ip), vehicle: water) was 102 % of control and the T/C (endpoint: median survival time, dose: 80.0 mg/kg/injection, schedule: Q04DX003 (ip), vehicle: water) was 94 % of control. The T/C (endpoint: median survival time, dose: 123.0 mg/kg/injection, schedule: Q04DX003 (ip), vehicle: water) was 104 % of control and the T/C (endpoint: median survival time, dose: 246.0 mg/kg/injection, schedule: Q04DX003 (ip), vehicle: water) was 110 % of control.

`CN1C2CCC1CC(O)C2` (stereo unspecified) was tested, and the T/C (endpoint: mean survival time, dose: 100.0 mg/kg/injection, schedule: Q04DX002 (ip), vehicle: saline) was 109 % of control, the T/C (endpoint: mean survival time, dose: 200.0 mg/kg/injection, schedule: Q04DX002 (ip), vehicle: saline) was 109 % of control and the T/C (endpoint: mean survival time, dose: 400.0 mg/kg/injection, schedule: Q04DX002 (ip), vehicle: saline) was 97 % of control.

In the case of `[Cl][Pt+2][Cl].[NH-]C(C(=O)O)C([NH-])C(=O)O` (stereo unspecified), the T/C [1] is reported as 100 % of control, the T/C [2] is reported as 106 % of control and the T/C [3] is reported as 104 % of control.

`CCN(CC)CCN(C)N=Nc1ccccc1C(=O)NN` was tested, and the T/C (endpoint: mean survival time, dose: 72.0 mg/kg/injection, schedule: Q01DX001 (ip), vehicle: saline) was 105 % of control and the T/C (endpoint: mean survival time, dose: 145.0 mg/kg/injection, schedule: Q01DX001 (ip), vehicle: saline) was 100 % of control.

For `O=[N+]([O-])c1ccc(N/N=C(\COc2ccccc2)c2ccccc2)c([N+](=O)[O-])c1`, the T/C (endpoint: mean survival time, dose: 37.5 mg/kg/injection, schedule: Q01DX001 (ip), vehicle: saline with Tween-80) was 98 % of control, the T/C (endpoint: mean survival time, dose: 75.0 mg/kg/injection, schedule: Q01DX001 (ip), vehicle: saline with Tween-80) was 97 % of control and the T/C (endpoint: mean survival time, dose: 150.0 mg/kg/injection, schedule: Q01DX001 (ip), vehicle: saline with Tween-80) was 97 % of control.

With `CCC1(OC(=O)CNC)C(=O)OCc2c1cc1n(c2=O)Cc2cc3ccccc3nc2-1` (stereo unspecified) the T/C (endpoint: median survival time, dose: 7.5 mg/kg/injection, schedule: Q04DX002 (ip), vehicle: saline) was 124 % of control, the T/C (endpoint: median survival time, dose: 15.0 mg/kg/injection, schedule: Q04DX002 (ip), vehicle: saline) was 160 % of control and 162 % of control and the T/C (endpoint: median survival time, dose: 30.0 mg/kg/injection, schedule: Q04DX002 (ip), vehicle: saline) was 239 % of control. The T/C (endpoint: median survival time, dose: 60.0 mg/kg/injection, schedule: Q04DX002 (ip), vehicle: saline) was 108 % of control.

With `Nc1ccc(/C=C/C(=O)Nc2ccc(S(=O)(=O)F)cc2)cc1` the T/C (endpoint: mean survival time, dose: 100.0 mg/kg/injection, schedule: Q01DX001 (ip), vehicle: saline with Tween-80) was 98 % of control and the T/C (endpoint: mean survival time, dose: 200.0 mg/kg/injection, schedule: Q01DX001 (ip), vehicle: saline with Tween-80) was 95 % of control.

In the case of `CCCOC(=O)c1cc([N+](=O)[O-])c(Sc2ncnc3nc[nH]c23)c([N+](=O)[O-])c1`, the T/C (endpoint: mean survival time, dose: 0.63 mg/kg/injection, schedule: Q01DX005 (ip), vehicle: other) is reported as 109 % of control, the T/C (endpoint: mean survival time, dose: 1.25 mg/kg/injection, schedule: Q01DX005 (ip), vehicle: other) is reported as 116 % of control and the T/C (endpoint: mean survival time, dose: 2.5 mg/kg/injection, schedule: Q01DX005 (ip), vehicle: other) is reported as 111 % of control. The T/C (endpoint: mean survival time, dose: 5.0 mg/kg/injection, schedule: Q01DX005 (ip), vehicle: other) was 111 % of control, the T/C (endpoint: mean survival time, dose: 10.0 mg/kg/injection, schedule: Q01DX005 (ip), vehicle: other) was 121 % of control and the T/C (endpoint: mean survival time, dose: 62.5 mg/kg/injection, schedule: Q01DX005 (ip), vehicle: other) was 165 % of control. For the same molecule, the T/C (endpoint: mean survival time, dose: 125.0 mg/kg/injection, schedule: Q01DX005 (ip), vehicle: other) was 101 % of control.

For `Brc1cccc(-n2ccnc2)c1`, the T/C [4] was 102 % of control and the T/C [5] was 112 % of control.

For `O=C1OCC/C1=C\c1cccc2ccccc12`, the T/C [4] was 102 % of control, the T/C [5] was 96 % of control and the T/C [6] was 97 % of control.

With `CC(=O)O.[Tl]` the T/C (endpoint: mean survival time, dose: 20.0 mg/kg/injection, schedule: Q01DX001 (ip), vehicle: saline) was 112 % of control, the T/C (endpoint: mean survival time, dose: 80.0 mg/kg/injection, schedule: Q01DX001 (ip), vehicle: saline) was 97 % of control and the T/C [7] was 100 % of control. For the same molecule, the T/C [8] was 100 % of control.

With `CC(C)(C)c1cc(C(C)(C)C)nc([N+](C)(C)C)c1` the T/C (endpoint: mean survival time, dose: 12.5 mg/kg/injection, schedule: Q04DX002 (ip), vehicle: saline with Tween-80) was 108 % of control, the T/C (endpoint: mean survival time, dose: 25.0 mg/kg/injection, schedule: Q04DX002 (ip), vehicle: saline with Tween-80) was 101 % of control and the T/C (endpoint: mean survival time, dose: 50.0 mg/kg/injection, schedule: Q04DX002 (ip), vehicle: saline with Tween-80) was 101 % of control.

For `O=S(=O)(Cl)c1cccc2c(S(=O)(=O)Cl)cccc12`, the T/C (endpoint: mean survival time, dose: 20.0 mg/kg/injection, schedule: Q04DX003 (ip), vehicle: Klucel (hydroxypropylcellulose) (HPC)) was 102 % of control, the T/C (endpoint: mean survival time, dose: 40.0 mg/kg/injection, schedule: Q04DX003 (ip), vehicle: Klucel (hydroxypropylcellulose) (HPC)) was 104 % of control and the T/C (endpoint: mean survival time, dose: 80.0 mg/kg/injection, schedule: Q04DX003 (ip), vehicle: Klucel (hydroxypropylcellulose) (HPC)) was 95 % of control. For the same molecule, the T/C (endpoint: mean survival time, dose: 200.0 mg/kg/injection, schedule: Q04DX003 (ip), vehicle: Klucel (hydroxypropylcellulose) (HPC)) was 109 % of control and the T/C (endpoint: mean survival time, dose: 400.0 mg/kg/injection, schedule: Q04DX003 (ip), vehicle: Klucel (hydroxypropylcellulose) (HPC)) was 122 % of control.

`COc1cc(C=Nc2cc(Cl)c(O)c(Cl)c2)ccc1N(CCCl)CCCl` was tested, and the T/C (endpoint: mean survival time, dose: 12.5 mg/kg/injection, schedule: Q01DX001 (ip), vehicle: carboxymethylcellulose (CMC)) was 120 % of control and the T/C (endpoint: mean survival time, dose: 25.0 mg/kg/injection, schedule: Q01DX001 (ip), vehicle: carboxymethylcellulose (CMC)) was 155 % of control.

`CN1CCN(c2ncnc3c2ncn3C2OC(CO)C(O)C2O)CC1` (stereo unspecified) was tested, and the T/C (endpoint: mean survival time, dose: 12.5 mg/kg/injection, schedule: Q01DX005 (ip), vehicle: water) was 106 % of control, the T/C (endpoint: mean survival time, dose: 25.0 mg/kg/injection, schedule: Q01DX005 (ip), vehicle: water) was 106 % of control and the T/C (endpoint: mean survival time, dose: 50.0 mg/kg/injection, schedule: Q01DX005 (ip), vehicle: water) was 112 % of control. For the same molecule, the T/C (endpoint: mean survival time, dose: 100.0 mg/kg/injection, schedule: Q01DX005 (ip), vehicle: water) was 106 % of control and the T/C (endpoint: mean survival time, dose: 200.0 mg/kg/injection, schedule: Q01DX005 (ip), vehicle: water) was 102 % of control.

`CCCCCC/C(C)=C(\C)c1cc(OC)cc(OC)c1` was tested, and the T/C [4] was 96 % of control and the T/C [5] was 100 % of control.

For `COC(=O)C(c1ccccc1)C(SCc1ccccc1)c1ccccc1` (stereo unspecified), the T/C [4] was 103 % of control, the T/C [5] was 95 % of control and the T/C [6] was 98 % of control.

`Oc1c(Br)cc(Br)c(O)c1Br` was tested, and the T/C [4] was 97 % of control and the T/C [5] was 95 % of control.

For `NCCNCC(=O)O`, the T/C [2] was 97 % of control, the T/C [3] was 93 % of control and the T/C (endpoint: mean survival time, dose: 400.0 mg/kg/injection, schedule: Q04DX003 (ip), vehicle: saline) was 97 % of control.

In the case of `CC(C)C/C(=N\Nc1ccccc1)c1ccccn1`, the T/C [7] is reported as 101 % of control, the T/C [8] is reported as 100 % of control and the T/C (endpoint: mean survival time, dose: 400.0 mg/kg/injection, schedule: Q01DX001 (ip), vehicle: saline) is reported as 97 % of control.

For `Clc1ccc([PH+](c2ccc(Cl)cc2)c2ccc(Cl)cc2)cc1.Clc1ccc([PH+](c2ccc(Cl)cc2)c2ccc(Cl)cc2)cc1.[Cl][Hg][Cl]`, the T/C (endpoint: mean survival time, dose: 12.5 mg/kg/injection, schedule: Q01DX009 (ip), vehicle: Klucel (hydroxypropylcellulose) (HPC)) was 96 % of control and the T/C (endpoint: mean survival time, dose: 50.0 mg/kg/injection, schedule: Q01DX009 (ip), vehicle: Klucel (hydroxypropylcellulose) (HPC)) was 104 % of control.

In the case of `O=c1[nH]cc(F)c(=O)n1C1CCCCO1` (stereo unspecified), the T/C (endpoint: mean survival time, dose: 12.5 mg/kg/injection, schedule: Q01DX009 (ip), vehicle: saline) is reported as 121 % of control, the T/C (endpoint: mean survival time, dose: 12.5 mg/kg/injection, schedule: Q04DX003 (ip), vehicle: saline) is reported as 98 % of control and the T/C (endpoint: mean survival time, dose: 25.0 mg/kg/injection, schedule: Q04DX003 (ip), vehicle: saline) is reported as 102 % of control. The T/C (endpoint: mean survival time, dose: 50.0 mg/kg/injection, schedule: Q01DX009 (ip), vehicle: saline) was 156 % of control, the T/C [1] was 98 % of control and the T/C (endpoint: mean survival time, dose: 100.0 mg/kg/injection, schedule: Q01DX009 (ip), vehicle: saline) was 175 % of control and 184 % of control. For the same molecule, the T/C [2] was 100 % of control.

In the case of `C=C1CC23CC1(O)CCC2C12C=CCC(C)(C(=O)O1)C2C3C(=O)O` (stereo unspecified), the T/C (endpoint: mean survival time, dose: 100.0 mg/kg/injection, schedule: Q01DX009 (ip), vehicle: saline with Tween-80) is reported as 91 % of control, the T/C (endpoint: mean survival time, dose: 200.0 mg/kg/injection, schedule: Q01DX009 (ip), vehicle: saline with Tween-80) is reported as 95 % of control and the T/C (endpoint: mean survival time, dose: 400.0 mg/kg/injection, schedule: Q01DX009 (ip), vehicle: saline with Tween-80) is reported as 91 % of control.
